For experiment [1], the target named is T1, rCB1 (Rattus norvegicus, UniProt P20272). In words: rCB1 competition-equilibrium binding with [3H]CP-55,940, rat brain membranes. On the set-up: Frozen rat brains (CB1 source) are obtained from Pel-Freeze Biologicals; tissue Pel-Freeze Biologicals (Rogers, AK); host or cells: rat brain membranes. The procedure: Frozen rat brains (CB1 source) are obtained from Pel-Freeze Biologicals (Rogers, AK) and stored at −80° C. until use. Membranes are prepared according to the method described by Dodd et al. and used in our laboratory as reported.
(§1) All the cannabinoids discussed in this invention are tested for their ability to bind to CB 1 and CB2 receptors using membranes from rat brain or HEK293 cells expressing either mCB2 or hCB2, respectively via competition-equilibrium binding using [^3H]CP-55,940. Results are analyzed using nonlinear regression to determine ligand IC50 (Prism by GraphPad Software, Inc.), and Ki values are calculated from the IC50. IC50 and Ki values are determined from at least three independent experiments.
(§2) Some disclosed compounds were tested for CB1 and CB2 receptor binding affinity, which can be represented by a Ki value. The Ki value is the affinity constant and describes the affinity of the compound for the receptor. […] A detailed description of the methods used to test binding affinity of compounds is given in US 2007/0135388 and in Papahatjis, et al., J. Med. Chem. (2007) 4048, the content of each of which is hereby incorporated by reference.

Experiment [2] has as its target T2, mCB2 (Mus musculus, UniProt P47936).
T2 construct: expressed in transfected cells; host or cells: HEK293
In words: mCB2 competition-equilibrium binding with [3H]CP-55,940, HEK293 membranes. The procedure: (§3) HEK293 cells expressing hCB1 or hCB2 or mCB2 receptor are used for membrane preparations according to Abadji et al. The resulting pellet is resuspended in 10 mM Tris-chloride, pH 7.4, with 5 mM MgCl2 and 2 mM EDTA (TME), rapidly frozen in liquid nitrogen and stored at −80° C. for no longer than two months. Protein content is assayed by using the Bio-Rad protein assay according to the manufacturer's protocol.
as §1, §2

For experiment [3], the target named is T3, hCB2 (Homo sapiens, UniProt P34972).
T3 construct: expressed in transfected cells; host or cells: HEK293
Put plainly: hCB2 competition-equilibrium binding with [3H]CP-55,940, HEK293 membranes. The procedure:
as §3, §1, §2

The target of experiment [4] is T1, rCB1. In words: cAMP assay, rCB1. The conditions noted are these: for Emax: cAMP assay. Format: cell-based. The procedure:
Functional characterization of some of the disclosed compounds was performed by using the cyclic adenosine monophosphate (cAMP) assay. The functional potency of the compound in the cAMP assay is represented by the EC50 value. The lower the EC50 value, the higher the functional potency. A detailed description of the cyclic adenosine monophosphate (cAMP) assay is given in Nikas et al. J. Med. Chem. (2010) 6996, the content of which is incorporated herein by reference. Table 10 lists the EC50 values of certain compounds of Formula (Je) in the cAMP assay.
Background: Cyclic AMP is a second messenger, typically raised through Gs and lowered through Gi signalling.

Where two headings read alike, the source gives them in different places.

In general, Ki refers to a dissociation constant, usually derived from enzyme kinetics or from competition with a known ligand. As usually defined, the EC50 is the midpoint of the concentration-response curve. Broadly, the Emax is the maximal effect, on the per cent scale that the assay sets.

T2 sequence (P47936 whole entry): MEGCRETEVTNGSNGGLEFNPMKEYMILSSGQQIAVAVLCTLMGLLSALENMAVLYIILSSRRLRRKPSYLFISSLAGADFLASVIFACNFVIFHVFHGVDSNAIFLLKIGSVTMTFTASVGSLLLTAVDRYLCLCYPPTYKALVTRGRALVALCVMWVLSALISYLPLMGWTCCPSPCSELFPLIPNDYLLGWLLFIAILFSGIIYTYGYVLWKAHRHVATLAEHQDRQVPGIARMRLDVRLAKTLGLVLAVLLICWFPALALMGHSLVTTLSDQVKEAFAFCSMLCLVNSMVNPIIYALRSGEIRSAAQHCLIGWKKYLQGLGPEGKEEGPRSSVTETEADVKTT
T1 sequence (P20272 whole entry): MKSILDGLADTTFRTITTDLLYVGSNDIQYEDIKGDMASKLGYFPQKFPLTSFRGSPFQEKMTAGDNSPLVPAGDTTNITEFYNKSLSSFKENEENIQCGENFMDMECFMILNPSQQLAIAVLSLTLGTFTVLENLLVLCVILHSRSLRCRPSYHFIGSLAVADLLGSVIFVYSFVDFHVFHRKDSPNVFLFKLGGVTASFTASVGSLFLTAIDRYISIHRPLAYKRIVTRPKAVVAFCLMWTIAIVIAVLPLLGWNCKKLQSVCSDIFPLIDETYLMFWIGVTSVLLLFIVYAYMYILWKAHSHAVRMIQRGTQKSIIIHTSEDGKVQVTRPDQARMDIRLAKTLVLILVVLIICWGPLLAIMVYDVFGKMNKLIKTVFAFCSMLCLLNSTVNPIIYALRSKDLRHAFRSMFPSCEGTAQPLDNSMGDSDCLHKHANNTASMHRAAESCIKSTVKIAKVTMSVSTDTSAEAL
T3 sequence (P34972 whole entry): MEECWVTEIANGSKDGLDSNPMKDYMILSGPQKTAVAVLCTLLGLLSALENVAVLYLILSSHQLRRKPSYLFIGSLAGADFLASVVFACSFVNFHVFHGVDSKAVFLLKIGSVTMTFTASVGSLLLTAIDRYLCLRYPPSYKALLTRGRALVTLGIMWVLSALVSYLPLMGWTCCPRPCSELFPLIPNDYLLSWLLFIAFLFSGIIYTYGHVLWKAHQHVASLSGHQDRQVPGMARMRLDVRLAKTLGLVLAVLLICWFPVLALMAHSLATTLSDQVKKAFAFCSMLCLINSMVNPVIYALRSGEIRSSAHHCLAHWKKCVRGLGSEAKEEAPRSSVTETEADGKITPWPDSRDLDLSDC

Take `CCCCOC(=O)C1(c2cc(O)c3c(c2)OC(C)(C)C2CCC(=O)CC32)CCCC1` (stereo not drawn) [AM8137]: in experiment [1], the Ki was determined as 0.4 ± 0.01 nM.

In the case of `CC1(C)Oc2cc(C3(C(=O)O)CCCC3)cc(O)c2C2CC(=O)CCC21` (stereo not drawn) [AM8139], the Ki in experiment [2], in experiment [3] and in experiment [1] was > 1000 nM in each case.

On to `CC1=CC[C@H]2[C@@H](C1)c1c(O)cc(C(C)(C)C(=O)OCCCCC#N)cc1OC2(C)C` [Compound 1.3, 4-cyanobutyl-2-((6aS, 10aR)-6a, 7, 10, 10a-tetrahydro-1-hydroxy-6,6,9-trimethyl-6H-benzo[c]chromen-3-yl)-2-methylpropanoate], for which, in experiment [2] (HEK293 cells expressing mCB2, Tables 5-8, read-out: mCB2 Ki), the inhibition constant (Ki) was 0.5 nM.

In experiment [2], `CC1=CC[C@@H]2[C@@H](C1)c1c(O)cc(C(C)(C)C(=O)OCCCN3CCOCC3)cc1OC2(C)C` [Compound 1.25, 3-morpholinopropyl 2-((6aR, 10aR)-1-hydroxy-6,6,9-trimethyl-6a,7, 10, 10a-tetrahydro-6H-benzo[c]chromen-3-yl)-2-methylpropanoate] displayed a Ki of 104 nM.

On to `CC(C)(C(=O)OCCCC#N)c1cc(O)c2c(c1)OC(C)(C)[C@@H]1CC=C(CO)C[C@@H]21` [Compound 2.5], for which the inhibitory constant (Ki) in experiment [2], in experiment [3] and in experiment [1] was 1 nM each time.

The compound `CCCCOC(=O)C(C)(C)c1cc(O)c2c(c1)OC(C)(C)[C@@H]1CC[C@H](O)C[C@@H]21` [Compound 3.8, Butyl-2-((6aR,9S, 10aR)-6a,7,8,9, 10, 10a-hexahydro-1,9-dihydroxy-6,6-dimethyl-6H-benzo[c]chromen-3-yl)-2-methylpropanoate] came in with a Ki in experiment [2] of 0.6 nM.

As to `CCCCCCC(C)(C)c1cc(O)c2c(c1)OC(C)(C)[C@@H]1CCOC(=O)C[C@@H]21` [Compound 3.11, (5aR, 11bR)-11-hydroxy-6,6-dimethyl-9-(2-methyloctan-2-yl)-4,5,5a,6-tetrahydro-1H-oxepino[4,5-c]chromen-2(11bH)-one], the affinity in experiment [2], expressed as Ki, was 8 nM.

As to `CCOC(=O)C(C)(C)c1cc(O)c(-c2cccc(C#N)c2)c(O)c1` [Compound 4.2, Ethyl 2-(3′-cyano-2,6-dihydroxybiphenyl-4-yl)-2-methylpropanoate], the Ki in experiment [1] (rat brain membranes, Tables 5-8, read-out: rCB1 Ki) came to 3.66 nM.

For `CC(C)(C(=O)OCCCI)c1cc(O)c2c(c1)OC(C)(C)[C@@H]1CCC(=O)C[C@@H]21` [Compound 7, 3-Iodopropyl-2-((6aR,10aR)-1-hydroxy-6,6-dimethyl-9-oxo-6a,7,8,9,10,10a-hexahydro-6H-benzo[c]chromen-3-yl)-2-methylpropanoate], the Ki in experiment [2] turned out to be 1.2 ± 0.6 nM; in experiment [3] it was 5.3 ± 0.9 nM; in experiment [1], 0.1 ± 0.04 nM.

For `CC(C)(C(=O)OCCCN=C=S)c1cc(O)c2c(c1)OC(C)(C)[C@@H]1CCC(=O)C[C@@H]21` [Compound 10, 3-Isothiocyanatopropyl-2-((6aR,10aR)-1-hydroxy-6,6-dimethyl-9-oxo-6a,7,8,9,10,10a-hexahydro-6H-benzo[c]chromen-3-yl)-2-methylpropanoate], the Ki is 20 nM in experiment [2], 22 nM in experiment [3] and 7.9 nM in experiment [1]. The same compound showed an EC50 in experiment [4] of 13.8 nM. The compound further came in with an Emax in experiment [4] of 38%.

For `CC(C)(CC(=O)O)c1cc(O)c2c(c1)OC(C)(C)[C@@H]1CCC(=O)C[C@@H]21` [Compound 19, 3-((6aR,10aR)-1-Hydroxy-6,6-dimethyl-9-oxo-6a,7,8,9,10,10a-hexahydro-6H-benzo[c]chromen-3-yl)-3-methylbutanoic acid], the inhibition constant (Ki) in experiment [2], in experiment [3] and in experiment [1] was > 1000 nM throughout.

As for `COC(=O)CCC(C)(C)c1cc(O)c2c(c1)OC(C)(C)[C@@H]1CCC(=O)C[C@@H]21` [Compound 23, Methyl-4-((6aR,10aR)-1-hydroxy-6,6-dimethyl-9-oxo-6a,7,8,9,10,10a-hexahydro-6H-benzo[c]chromen-3-yl)-4-methylpentanoate], the inhibition constant (Ki) in experiment [2] came out at 540 ± 46.7 nM; in experiment [3], 560 ± 64.3 nM; in experiment [1], 270 ± 34.6 nM.

Turning to `CC(C)(C(=O)O)c1cc(O)c2c(c1)OC(C)(C)[C@@H]1CCC(=O)C[C@@H]21` [Compound 32, 2-[(6aR,10aR)-6a,7,8,9,10,10a-Hexahydro-1-hydroxy-6,6-dimethyl-9-oxo-6H-benzo[c]chromen-3-yl]-2-methylpropanoic acid], the inhibitory constant (Ki) in experiment [2], in experiment [3] and in experiment [1] was > 1000 nM each time.

Take `CCOC(=O)C(C)(C)c1cc(O)c2c(c1)OC(C)(C)[C@@H]1CCC(=O)C[C@@H]21` [Compound 34a, Ethyl 2-((6aR,10aR)-1-hydroxy-6,6-dimethyl-9-oxo-6a,7,8,9,10,10a-hexahydro-6H-benzo[c]chromen-3-yl)-2-methylpropanoate]: the results for the Ki in experiment [2], in experiment [3] and in experiment [1] were 89.7 ± 18.1 nM, 67.5 ± 13.4 nM and 36.7 ± 5.6 nM, respectively.

As for `CCCOC(=O)C(C)(C)c1cc(O)c2c(c1)OC(C)(C)[C@@H]1CCC(=O)C[C@@H]21` [Compound 34b, Propyl 2-((6aR,10aR)-1-hydroxy-6,6-dimethyl-9-oxo-6a,7,8,9,10,10a-hexahydro-6H-benzo[c]chromen-3-yl)-2-methylpropanoate], the results for the inhibition constant (Ki) in experiment [2], in experiment [3] and in experiment [1] were 32 ± 5.2 nM, 8.3 ± 3.1 nM and 4.8 ± 0.8 nM, respectively.

For `CCCCCCOC(=O)C(C)(C)c1cc(O)c2c(c1)OC(C)(C)[C@@H]1CCC(=O)C[C@@H]21` [Compound 34d, Hexyl 2-((6aR,10aR)-1-hydroxy-6,6-dimethyl-9-oxo-6a,7,8,9,10,10a-hexahydro-6H-benzo[c]chromen-3-yl)-2-methylpropanoate], the Ki was 30 ± 7.3 nM in experiment [2], 15.1 ± 2.2 nM in experiment [3] and 5.9 ± 1.2 nM in experiment [1].

Turning to `CCC[C@H](C)OC(=O)C(C)(C)c1cc(O)c2c(c1)OC(C)(C)[C@@H]1CCC(=O)C[C@@H]21` [Compound 34e, (S)-pentan-2-yl 2-((6aR,10aR)-1-hydroxy-6,6-dimethyl-9-oxo-6a,7,8,9,10,10a-hexahydro-6H-benzo[c]chromen-3-yl)-2-methylpropanoate], the Ki was 54 ± 10.6 nM in experiment [2], 12.4 ± 2.5 nM in experiment [3] and 3 ± 0.5 nM in experiment [1]. This compound registered a concentration for a half-maximal effect (EC50) in experiment [4] of 2.9 nM. The Emax in experiment [4] is 58%.

As to `CCCCNC(=O)C(C)(C)c1cc(O)c2c(c1)OC(C)(C)[C@@H]1CCC(=O)C[C@@H]21` [Compound 34i, N-Butyl-2-((6aR,10aR)-1-hydroxy-6,6-dimethyl-9-oxo-6a,7,8,9,10,10a-hexahydro-6H-benzo[c]chromen-3-yl)-2-methylpropanamide], the inhibition constant Ki in experiment [2] was > 1000 nM; in experiment [3], > 1000 nM; in experiment [1], 115 ± 21.6 nM.

Take `CC(C)(C(=O)OCCCCBr)c1cc(O)c2c(c1)OC(C)(C)[C@@H]1CCC(=O)C[C@@H]21` [Compound 36, 4-Bromobutyl 2-((6aR,10aR)-1-hydroxy-6,6-dimethyl-9-oxo-6a,7,8,9,10,10a-hexahydro-6H-benzo[c]chromen-3-yl)-2-methylpropanoate]: the inhibition constant (Ki) is 1.8 nM in experiment [2] and 0.002 nM in experiment [1].

As for `CC(C)(C(=O)OCCCCN=[N+]=[N-])c1cc(O)c2c(c1)OC(C)(C)[C@@H]1CCC(=O)C[C@@H]21` [Compound 37, 4-Azidobutyl 2-((6aR,10aR)-1-hydroxy-6,6-dimethyl-9-oxo-6a,7,8,9,10,10a-hexahydro-6H-benzo[c]chromen-3-yl)-2-methylpropanoate], the Ki in experiment [2] is 4.5 nM; in experiment [3], 1.7 nM; in experiment [1], 1.7 nM.

Take `CC(C)(C(=O)OCCCCN=C=S)c1cc(O)c2c(c1)OC(C)(C)[C@@H]1CCC(=O)C[C@@H]21` [Compound 38, 4-Isothiocyanatobutyl 2-((6aR,10aR)-1-hydroxy-6,6-dimethyl-9-oxo-6a,7,8,9,10,10a-hexahydro-6H-benzo[c]chromen-3-yl)-2-methylpropanoate]: the inhibitory constant (Ki) in experiment [2] was 21.4 nM; in experiment [3], 5.2 nM; in experiment [1] it was 4.9 nM.

`CC(C)(C(=O)OCCCCO[N+](=O)[O-])c1cc(O)c2c(c1)OC(C)(C)[C@@H]1CCC(=O)C[C@@H]21` [Compound 39, 4-(Nitrooxy)butyl 2-((6aR,10aR)-1-hydroxy-6,6-dimethyl-9-oxo-6a,7,8,9,10,10a-hexahydro-6H-benzo[c]chromen-3-yl)-2-methylpropanoate]: the Ki in experiment [2] is 2.2 nM; in experiment [3], 2.6 nM; in experiment [1] it was 0.2 nM.

(Values after patent publication US11964956B2, “Cannabinergic compounds and uses thereof” (Northeastern University, priority 2012, dated 2024).)
